Data published in patent US5001123A, “2,5-diaryl tetrahydrofurans and analogs thereof as PAF antagonists” (Merck & Co., Inc., priority 1989, dated 1991).

System: PAF specific receptor binding site, human platelet membranes
Test: inhibition of the binding of [3H] N-methylcarbamoyl-PAF to human platelet membranes
Settings: trans configuration
Description: The compounds of formula (I) inhibit PAF induced functions in both the cellular and tissue levels by changing the PAF binding to its specific receptor site. The ability of a compound of formula (I) to inhibit the PAF binding to its specific receptor binding site on rabbit or human platelet or PMN plasma membranes was measured by a recently developed assay.
The inhibition of ^3 [H]-PAF or ^3 [H]N-methylcarbamoyl-PAF binding to the human or rabbit platelet or PMN plasma membrane by a PAF antagonist of formula (I) was determined by a method employing isotopic labeling and filtration techniques. Generally, a series of Tris buffered solutions of the selected antagonist at predetermined concentrations were prepared. […] Each washed residue was then suspended in 10 ml scintillation solution (Aquasol 2, New England Nuclear, Conn.) and the radioactivity was counted in a Packard Tri-Carb 460CD Liquid Scintillation System. Defining the counts from a test sample as "Total binding with antagonist"; the counts from the control sample C1, as "Total binding C1 "; and the counts from the control sample C2 as "non specific binding C2 ", the percent inhibition of each test antagonist can be determined by the following equations: [formula] […]

CCCOc1c(OCC(O)CN2CCOCC2)cc([C@@H]2CC[C@@H](c3cnc(OC)c(OC)c3)O2)cc1S(=O)(=O)CC(C)O (stereo partly drawn) [Example 3, trans-2-[3-(2-Hydroxypropyl)sulfonyl-4-n-propoxy-5-(3-1-morpholino-2-hydroxypropoxy)phenyl]-5-[5-(2,3-dimethoxy)pyridyl]tetrahydrofuran]
% inhibition of the binding of [3H] Nmethylcarbamoyl-PAF to human platelet membranes (3 nM): 11%
% inhibition of the binding of [3H] Nmethylcarbamoyl-PAF to human platelet membranes (30 nM): 39%
